Where a SMILES comes first, the peptide text is derived from it. Bridges are numbered along the chain shown (N, C = ends). Where no end group is shown, it is not given here. [ ]: non-standard residue; d: D form. PEG 40 kDa = PEG (40 kDa) covalently attached to Cys; C18 acyl = 18 carbon fatty acyl group; Aib = CC(C)(N)C(=O)O
How the values were obtained:
Type in all cases: cell-based
[1] = target: T1, glucagon receptor (Homo sapiens, UniProt P47871); experiment: cAMP synthesis functional assay (firefly luciferase reporter in HEK293 cells), glucagon receptor
T1 construct: expressed in transfected cells; host or cells: HEK293

[2] = target: T2, GLP-1 receptor (Homo sapiens, UniProt P43220); experiment: cAMP synthesis functional assay (firefly luciferase reporter in HEK293 cells), GLP-1 receptor
T2 construct: expressed in transfected cells; host or cells: HEK293

[3] = target: T3, GIP receptor (Homo sapiens, UniProt P48546); experiment: cAMP synthesis functional assay (firefly luciferase reporter in HEK293 cells), GIP receptor
T3 construct: expressed in transfected cells; host or cells: HEK293
T3 sequence (P48546 22-466): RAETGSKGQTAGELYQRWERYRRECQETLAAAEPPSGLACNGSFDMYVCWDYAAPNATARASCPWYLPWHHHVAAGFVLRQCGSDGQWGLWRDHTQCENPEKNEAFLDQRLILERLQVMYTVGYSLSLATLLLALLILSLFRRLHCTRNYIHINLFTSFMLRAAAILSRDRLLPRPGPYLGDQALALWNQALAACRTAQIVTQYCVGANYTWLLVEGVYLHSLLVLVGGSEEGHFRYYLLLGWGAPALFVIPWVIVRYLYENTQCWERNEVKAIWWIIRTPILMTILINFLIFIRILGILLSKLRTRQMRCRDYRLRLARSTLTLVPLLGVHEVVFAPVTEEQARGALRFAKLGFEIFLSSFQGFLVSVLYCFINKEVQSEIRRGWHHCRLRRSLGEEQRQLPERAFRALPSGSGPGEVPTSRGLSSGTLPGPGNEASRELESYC

[4] = test system: glucagon receptor, GLP-1 receptor or GIP receptor; experiment: Agonist profile across receptors assigned from the cAMP reporter assay data; details: assigned from the in vitro EC50 data of Tables 1-4
[5] = Table 1, relative to the native hormone of the indicated receptor
[6] = Table 4, relative to the native hormone

T2 sequence (P43220 24-463, species assumed): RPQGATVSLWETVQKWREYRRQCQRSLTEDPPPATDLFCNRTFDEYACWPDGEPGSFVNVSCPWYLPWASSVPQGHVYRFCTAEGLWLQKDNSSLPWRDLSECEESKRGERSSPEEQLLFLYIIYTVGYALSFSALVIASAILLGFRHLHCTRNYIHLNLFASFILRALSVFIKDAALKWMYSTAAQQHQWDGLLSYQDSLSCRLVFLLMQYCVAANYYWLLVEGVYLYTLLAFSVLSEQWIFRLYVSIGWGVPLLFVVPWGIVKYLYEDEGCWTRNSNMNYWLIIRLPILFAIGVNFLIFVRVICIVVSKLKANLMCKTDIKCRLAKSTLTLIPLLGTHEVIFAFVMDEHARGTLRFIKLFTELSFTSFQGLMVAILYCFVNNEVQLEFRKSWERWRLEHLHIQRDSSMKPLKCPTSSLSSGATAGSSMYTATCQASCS
T1 sequence (P47871 26-477): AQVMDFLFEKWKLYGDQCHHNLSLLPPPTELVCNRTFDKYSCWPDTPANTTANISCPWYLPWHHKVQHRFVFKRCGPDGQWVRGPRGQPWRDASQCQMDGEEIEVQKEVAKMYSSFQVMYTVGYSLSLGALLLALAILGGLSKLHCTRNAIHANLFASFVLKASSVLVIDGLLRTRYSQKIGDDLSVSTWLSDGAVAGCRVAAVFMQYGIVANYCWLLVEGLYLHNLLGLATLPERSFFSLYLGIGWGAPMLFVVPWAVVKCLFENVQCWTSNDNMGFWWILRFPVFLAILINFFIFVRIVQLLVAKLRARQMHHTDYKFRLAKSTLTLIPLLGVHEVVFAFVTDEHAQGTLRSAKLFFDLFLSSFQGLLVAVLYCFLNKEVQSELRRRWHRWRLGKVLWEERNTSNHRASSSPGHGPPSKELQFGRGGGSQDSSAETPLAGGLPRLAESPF

Compound: CC[C@H](C)[C@H](NC(=O)[C@H](CO)NC(=O)[C@H](Cc1ccc(O)cc1)NC(=O)[C@H](CC(=O)O)NC(=O)[C@H](CO)NC(=O)[C@@H](NC(=O)[C@H](Cc1ccccc1)NC(=O)[C@@H](NC(=O)CNC(=O)[C@H](CCC(N)=O)NC(=O)C(C)(C)NC(=O)[C@@H](N)Cc1ccc(O)cc1)[C@@H](C)O)[C@@H](C)O)C(=O)N[C@@H](Cc1ccc(O)cc1)C(=O)N[C@@H](CC(C)C)C(=O)N[C@@H](CC(=O)O)C(=O)N[C@H]1CCC(=O)NCCCC[C@@H](C(=O)N[C@@H](CCC(=O)O)C(=O)N[C@@H](Cc2ccccc2)C(=O)N[C@H](C(=O)N[C@@H](CS)C(=O)N[C@@H](Cc2c[nH]c3ccccc23)C(=O)N[C@@H](CC(C)C)C(=O)N[C@@H](CC(C)C)C(=O)N[C@@H](C)C(=O)NCC(=O)NCC(=O)N2CCC[C@H]2C(=O)N[C@@H](CO)C(=O)N[C@@H](CO)C(=O)NCC(=O)N[C@@H](C)C(=O)N2CCC[C@H]2C(=O)N2CCC[C@H]2C(=O)N2CCC[C@H]2C(=O)N[C@@H](CO)C(N)=O)C(C)C)NC(=O)[C@H](C)NC(=O)[C@H](C)NC(=O)[C@H](CCC(N)=O)NC1=O [mt-158] (H-Y[Aib]QGTFTSDYSIYLDEQAAKEFVCWLLAGGPSSGAPPPS-NH2; lactam 16-20; N-terminus assumed)
- Glucagon Receptor relative activity [1, 5]: 14.90%
- GLP-1 Receptor relative activity [2, 5]: 102.94%
- GIP Receptor relative activity [3, 5]: 17.82%
- receptor activity profile (glucagon / GLP-1 / GIP agonism) [4]: exemplary GLP-1/GIP/glucagon triagonist peptides

Compound: CC[C@H](C)[C@H](NC(=O)[C@H](CO)NC(=O)[C@H](Cc1ccc(O)cc1)NC(=O)[C@H](CC(=O)O)NC(=O)[C@H](CO)NC(=O)[C@@H](NC(=O)[C@H](Cc1ccccc1)NC(=O)[C@@H](NC(=O)CNC(=O)[C@H](CCC(N)=O)NC(=O)[C@H](CO)NC(=O)[C@@H](N)Cc1ccc(O)cc1)[C@@H](C)O)[C@@H](C)O)C(=O)N[C@@H](Cc1ccc(O)cc1)C(=O)N[C@@H](CC(C)C)C(=O)N[C@@H](CC(=O)O)C(=O)N[C@H]1CCC(=O)NCCCC[C@@H](C(=O)N[C@@H](CCC(=O)O)C(=O)N[C@@H](Cc2ccccc2)C(=O)N[C@H](C(=O)N[C@@H](CC(N)=O)C(=O)N[C@@H](Cc2c[nH]c3ccccc23)C(=O)N[C@@H](CC(C)C)C(=O)N[C@@H](CC(C)C)C(=O)N[C@@H](C)C(=O)NCC(=O)NCC(=O)N2CCC[C@H]2C(=O)N[C@@H](CO)C(=O)N[C@@H](CO)C(=O)NCC(=O)N[C@@H](C)C(=O)N2CCC[C@H]2C(=O)N2CCC[C@H]2C(=O)N2CCC[C@H]2C(=O)N[C@@H](CO)C(N)=O)C(C)C)NC(=O)[C@H](C)NC(=O)[C@H](C)NC(=O)[C@H](CCC(N)=O)NC1=O [mt-140] (H-YSQGTFTSDYSIYLDEQAAKEFVNWLLAGGPSSGAPPPS-NH2; lactam 16-20; N-terminus assumed)
- Glucagon Receptor relative activity [1, 5]: 131.15%
- GLP-1 Receptor relative activity [2, 5]: 49.56%
- GIP Receptor relative activity [3, 5]: 12.85%
- receptor activity profile (glucagon / GLP-1 / GIP agonism) [4]: exemplary GLP-1/GIP/glucagon triagonist peptides

Compound: CC[C@H](C)[C@H](NC(=O)[C@H](Cc1ccccc1)NC(=O)[C@H](CCC(=O)O)NC(=O)[C@@H]1CCCCNC(=O)CC[C@H](NC(=O)[C@H](CC(=O)O)NC(=O)[C@H](CC(C)C)NC(=O)[C@H](Cc2ccc(O)cc2)NC(=O)[C@@H](NC(=O)[C@H](CO)NC(=O)[C@H](Cc2ccc(O)cc2)NC(=O)[C@H](CC(=O)O)NC(=O)[C@H](CO)NC(=O)[C@@H](NC(=O)[C@H](Cc2ccccc2)NC(=O)[C@@H](NC(=O)CNC(=O)[C@H](CCC(N)=O)NC(=O)[C@H](CO)NC(=O)[C@@H](N)Cc2ccc(O)cc2)[C@@H](C)O)[C@@H](C)O)[C@@H](C)CC)C(=O)N[C@@H](CCC(N)=O)C(=O)N[C@@H](C)C(=O)N[C@@H](C)C(=O)N1)C(=O)N[C@@H](C)C(=O)N[C@@H](Cc1c[nH]c2ccccc12)C(=O)N[C@@H](CC(C)C)C(=O)N[C@@H](CC(C)C)C(=O)N[C@@H](C)C(=O)NCC(=O)NCC(=O)N1CCC[C@H]1C(=O)N[C@@H](CO)C(=O)N[C@@H](CO)C(=O)NCC(=O)N[C@@H](C)C(=O)N1CCC[C@H]1C(=O)N1CCC[C@H]1C(=O)N1CCC[C@H]1C(=O)N[C@@H](CO)C(N)=O [mt-147] (H-YSQGTFTSDYSIYLDEQAAKEFIAWLLAGGPSSGAPPPS-NH2; lactam 16-20; N-terminus assumed)
- Glucagon Receptor relative activity [1, 5]: 90.52%
- GLP-1 Receptor relative activity [2, 5]: 33.87%
- GIP Receptor relative activity [3, 5]: 43.06%
- receptor activity profile (glucagon / GLP-1 / GIP agonism) [4]: exemplary GLP-1/GIP/glucagon triagonist peptides

Compound: mt-172: glucagon analog peptide, C-terminal amide (Y[Aib]QGTFTSDYSIYLDEQAAKEFVC(PEG 40 kDa)WLLAG-NH2; lactam 16-20)
- receptor activity profile (glucagon / GLP-1 / GIP agonism) [4]: exemplary GLP-1/GIP/glucagon triagonist peptides

Compound: mt-175: glucagon analog peptide, C-terminal amide (Y[Aib]QGTFTSDYSIYLDEQAAKEFVC(PEG 40 kDa)WLLAGGPSSGAPPPS-NH2; lactam 16-20)
- receptor activity profile (glucagon / GLP-1 / GIP agonism) [4]: exemplary GLP-1/GIP/glucagon triagonist peptides

Compound: mt-310: acylated version of mt-274: C-terminal Lys with C18 fatty acyl group, 40 kDa PEG on Cys at position 24 (Y[Aib]EGTFTSDYSIYLDKQAA[Aib]EFVC(PEG 40 kDa)WLLAGGPSSGAPPPSK(C18 acyl)-NH2)
- receptor activity profile (glucagon / GLP-1 / GIP agonism) [4]: exhibited activity at the GIP, GLP-1, and glucagon receptors

Compound: mt-248: sequence of mt-170 with an AIB at position 16 in lieu of the lactam (Y[Aib]QGTFTSDYSIYLD[Aib]QAAKEFVNWLLAGGPSSGAPPPSC(PEG 40 kDa)-NH2)
- receptor activity profile (glucagon / GLP-1 / GIP agonism) [4]: exhibited activities of glucagon/GLP-1/GIP triagonists

Compound: CC[C@H](C)[C@H](NC(=O)[C@H](Cc1ccccc1)NC(=O)[C@H](CCC(=O)O)NC(=O)[C@@H]1CCCCNC(=O)CC[C@H](NC(=O)[C@H](CC(=O)O)NC(=O)[C@H](CC(C)C)NC(=O)[C@H](Cc2ccc(O)cc2)NC(=O)[C@H](CCCCN)NC(=O)[C@H](CO)NC(=O)[C@H](Cc2ccc(O)cc2)NC(=O)[C@H](CC(=O)O)NC(=O)[C@H](CO)NC(=O)[C@@H](NC(=O)[C@H](Cc2ccccc2)NC(=O)[C@@H](NC(=O)CNC(=O)[C@H](CCC(N)=O)NC(=O)[C@H](CO)NC(=O)[C@@H](N)Cc2ccc(O)cc2)[C@@H](C)O)[C@@H](C)O)C(=O)N[C@@H](CCC(N)=O)C(=O)N[C@@H](C)C(=O)N[C@@H](C)C(=O)N1)C(=O)N[C@@H](C)C(=O)N[C@@H](Cc1c[nH]c2ccccc12)C(=O)N[C@@H](CC(C)C)C(=O)N[C@@H](CC(C)C)C(=O)N[C@@H](C)C(=O)NCC(=O)NCC(=O)N1CCC[C@H]1C(=O)N[C@@H](CO)C(=O)N[C@@H](CO)C(=O)NCC(=O)N[C@@H](C)C(=O)N1CCC[C@H]1C(=O)N1CCC[C@H]1C(=O)N1CCC[C@H]1C(=O)N[C@@H](CO)C(N)=O [mt-139] (H-YSQGTFTSDYSKYLDEQAAKEFIAWLLAGGPSSGAPPPS-NH2; lactam 16-20; N-terminus assumed)
- Glucagon Receptor relative activity [1, 5]: 561.11%
- GLP-1 Receptor relative activity [2, 5]: 41.46%
- GIP Receptor relative activity [3, 5]: 12.22%

Compound: CC[C@H](C)[C@H](NC(=O)[C@H](CO)NC(=O)[C@H](Cc1ccc(O)cc1)NC(=O)[C@H](CC(=O)O)NC(=O)[C@H](CO)NC(=O)[C@@H](NC(=O)[C@H](Cc1ccccc1)NC(=O)[C@@H](NC(=O)CNC(=O)[C@H](CCC(N)=O)NC(=O)[C@H](CO)NC(=O)[C@@H](N)Cc1ccc(O)cc1)[C@@H](C)O)[C@@H](C)O)C(=O)N[C@@H](Cc1ccc(O)cc1)C(=O)N[C@@H](CC(C)C)C(=O)N[C@@H](CC(=O)O)C(=O)N[C@H]1CCC(=O)NCCCC[C@@H](C(=O)N[C@@H](CCC(=O)O)C(=O)N[C@@H](Cc2ccccc2)C(=O)N[C@H](C(=O)N[C@@H](CC(N)=O)C(=O)N[C@@H](Cc2c[nH]c3ccccc23)C(=O)N[C@@H](CC(C)C)C(=O)N[C@@H](CC(C)C)C(=O)N[C@@H](C)C(=O)NCC(N)=O)C(C)C)NC(=O)[C@H](C)NC(=O)[C@H](C)NC(=O)[C@H](CCC(N)=O)NC1=O [mt-163] (H-YSQGTFTSDYSIYLDEQAAKEFVNWLLAG-NH2; lactam 16-20; N-terminus assumed)
- Glucagon Receptor relative activity [1, 5]: 251.85%
- EC50 ([2]; GLP-1 Receptor EC50, nM, Table 1): 0.04 nM
- GLP-1 Receptor relative activity [2, 5]: 30.00%
- GIP Receptor relative activity [3, 5]: 4.73%

Compound: mt-376: acylated PEG-linked dimer, acylation at position 40 of each monomer (YXEGTFTSDYSIYLDKQAAXEFVNWLLAGGPSSGAPPPSKC; PEG-linked dimer, acylated at position 40; Mt-376; Homodimer; Xaa is Aib; 14 Carbon fatty acyl group covelently bound to Lysine; C-terminal amidation; Cys residue covalently attached to 20 kDa PEG which is in turn covalently attached to a Cys residue of a second peptide having the same structure)
- Glucagon Receptor relative activity [1, 6]: 0.57%
- EC50 ([1]; read-out: Glucagon Receptor EC50, Table 4): 13.5 nM
- GLP-1 Receptor relative activity [2, 6]: 126.82%
- GIP Receptor relative activity [3, 6]: 62.63%

Source: US9062124B2, “GIP-based mixed agonists for treatment of metabolic disorders and obesity” (priority 2008, dated 2015)
